The assay concerns NLRP3. The assay can be described thus: IL-1β secretion assay in PMA-differentiated, LPS/nigericin-stimulated THP-1 cells (384-well, ELISA read-out). The class given is cell-based, human. The method, boiled down: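 THP-1 cells differentiated with PMA (5 ng/mL, 40 h), primed in serum-free medium with 25 ng/mL LPS for 2 h, treated with compounds 1 h (0.5% DMSO), then stimulated with nigericin for 2 h at 37 °C. Supernatant IL-1β measured by ELISA; responses normalized to LPS+5 μM nigericin and LPS-only controls.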

The mark [1] stands for this setting: Homo sapiens, THP-1, IL-1β secretion, PMA-differentiated THP-1 cells, LPS then nigericin stimulation, ELISA read at 450 nm, read-out: Activity.
[2] abbreviates: Table 4, IL-1β secretion, LPS/nigericin-stimulated THP-1 cells, read-out: IC50.
Where [3] appears, read: IL-1β secretion, PMA-differentiated THP-1 cells, LPS then nigericin stimulation, ELISA read at 450 nm, read-out: Activity.
Where [4] appears, read: Homo sapiens, THP-1, Table 4, IL-1β secretion, LPS/nigericin-stimulated THP-1 cells, read-out: IC50.

Among the data in US20230416205A1, “COMPOUNDS, COMPOSITIONS, AND METHODS” (Denali Therapeutics Inc, priority 2020, published 2023) are IC50 values, retold here.

pIC50: −log10 of the molar value. Read-outs that look alike come from different tables or passages of the source.

Consider `O=C(CN1CC(C(F)F)c2c(ccc(Br)c2F)C1=O)Nc1ncc(F)cn1` (single isomer, unassigned) [Example 295, 2-[6-bromo-4-(difluoromethyl)-5-fluoro-1-oxo-3,4-dihydroisoquinolin-2-yl]-N-(5-fluoropyrimidin-2-yl)acetamide], for which the pIC50 by setting is: under setting [1], 4.82 to 5.00; under setting [2], 4.89. Take `O=C(CN1CC(C(F)F)c2c(ccc(Br)c2F)C1=O)Nc1ncc(F)cn1` (single isomer, unassigned) [Example 296, 2-[6-bromo-4-(difluoromethyl)-5-fluoro-1-oxo-3,4-dihydroisoquinolin-2-yl]-N-(5-fluoropyrimidin-2-yl)acetamide]: the pIC50 was over 5.00 under setting [3] and 6.46 under setting [2]. As for `O=C(CN1CC(C(F)(F)F)c2c(ccc(Br)c2F)C1=O)Nc1ncc(F)cn1` (single isomer, unassigned) [Example 297, 2-[6-bromo-5-fluoro-1-oxo-4-(trifluoromethyl)-3,4-dihydroisoquinolin-2-yl]-N-(5-fluoropyrimidin-2-yl)acetamide], the pIC50 is 4.82 to 5.00 under setting [1] and 4.84 under setting [2]. As for `O=C(CN1CC(C(F)(F)F)c2c(ccc(Br)c2F)C1=O)Nc1ncc(F)cn1` (single isomer, unassigned) [Example 298, 2-[6-bromo-5-fluoro-1-oxo-4-(trifluoromethyl)-3,4-dihydroisoquinolin-2-yl]-N-(5-fluoropyrimidin-2-yl)acetamide], the pIC50 reads like this: under setting [3], over 5.00; under setting [2], 6.44. With `O=C(CN1CC(C(F)(F)F)c2cc(Br)ccc2C1=O)Nc1ncc(F)cn1` (single isomer, unassigned) [Example 299, 2-[6-bromo-1-oxo-4-(trifluoromethyl)-3,4-dihydroisoquinolin-2-yl]-N-(5-fluoropyrimidin-2-yl)acetamide], the pIC50 runs as follows: under setting [1], over 5.00; under setting [2], 7.02. On to `O=C(CN1CC(C(F)(F)F)c2cc(Br)ccc2C1=O)Nc1ncc(F)cn1` (single isomer, unassigned) [Example 300, 2-[6-bromo-1-oxo-4-(trifluoromethyl)-3,4-dihydroisoquinolin-2-yl]-N-(5-fluoropyrimidin-2-yl)acetamide], for which the pIC50 under setting [3] was over 5.00 and the pIC50 under setting [2] was 5.46. As for `O=C(CN1CC2(CC2)c2c(ccc(C3C[C@H]3F)c2F)C1=O)Nc1ncc(F)cn1` (single isomer, unassigned) [Example 303, 2-[5-fluoro-6-[(1r,2r)-2-fluorocyclopropyl]-1-oxospiro[3H-isoquinoline-4-1′-cyclopropane]-2-yl]-N-(5-fluoropyrimidin-2-yl)acetamide], the pIC50 under setting [4] was 5.84. In the case of `O=C(CN1CC2(CC2)c2c(ccc(C3C[C@H]3F)c2F)C1=O)Nc1ncc(F)cn1` (single isomer, unassigned) [Example 304, 2-[5-fluoro-6-[(1r,2r)-2-fluorocyclopropyl]-1-oxospiro[3H-isoquinoline-4-1′-cyclopropane]-2-yl]-N-(5-fluoropyrimidin-2-yl)acetamide], the pIC50 under setting [2] was 5.59. With `O=C(CN1CC2(CC2)c2c(ccc(C3C[C@@H]3F)c2F)C1=O)Nc1ncc(F)cn1` (single isomer, unassigned) [Example 305, 2-[5-fluoro-6-[(1r,2s)-2-fluorocyclopropyl]-1-oxospiro[3H-isoquinoline-4,1′-cyclopropane]-2-yl]-N-(5-fluoropyrimidin-2-yl)acetamide], the pIC50 under setting [4] was 6.18. As for `O=C(CN1CC2(CC2)c2c(ccc(C3C[C@@H]3F)c2F)C1=O)Nc1ncc(F)cn1` (single isomer, unassigned) [Example 306, 2-[5-fluoro-6-[(1r,2s)-2-fluorocyclopropyl]-1-oxospiro[3H-isoquinoline-4,1′-cyclopropane]-2-yl]-N-(5-fluoropyrimidin-2-yl)acetamide], under setting [2], the pIC50 is 6.24. Still for that read-out and setting: then `O=C(CN1CC2(CC2(F)F)c2c(ccc(Br)c2F)C1=O)Nc1ncc(Cl)cn1` (single isomer, unassigned) [Example 317, 2-[6-bromo-1′,1′,5-trifluoro-1-oxospiro[3H-isoquinoline-4,2′-cyclopropane]-2-yl]-N-(5-chloropyrimidin-2-yl)acetamide], with 5.07; and `O=C(CN1CC2(CC2(F)F)c2c(ccc(Br)c2F)C1=O)Nc1ncc(Cl)cn1` (single isomer, unassigned) [Example 318, 2-[6-bromo-1′,1′,5-trifluoro-1-oxospiro[3H-isoquinoline-4,2′-cyclopropane]-2-yl]-N-(5-chloropyrimidin-2-yl)acetamide], with 8.10. On the same count and under the same terms, next, `N#Cc1cnc(NC(=O)CN2CC3(CC3(F)F)c3c(ccc(Br)c3F)C2=O)nc1` (single isomer, unassigned) [Example 319, 2-[6-bromo-1′,1′,5-trifluoro-1-oxospiro[3H-isoquinoline-4,2′-cyclopropane]-2-yl]-N-(5-cyanopyrimidin-2-yl)acetamide]: 5.52; `N#Cc1cnc(NC(=O)CN2CC3(CC3(F)F)c3c(ccc(Br)c3F)C2=O)nc1` (single isomer, unassigned) [Example 320, 2-[6-bromo-1′,1′,5-trifluoro-1-oxospiro[3H-isoquinoline-4,2′-cyclopropane]-2-yl]-N-(5-cyanopyrimidin-2-yl)acetamide]: 7.85. Still for that read-out and setting: next, `O=C(CN1CC2(CC2(F)F)c2c(ccc(Br)c2F)C1=O)Nc1ncc(C(F)(F)F)cn1` (single isomer, unassigned) [Example 323, 2-[6-bromo-1′,1′,5-trifluoro-1-oxospiro[3H-isoquinoline-4,2′-cyclopropane]-2-yl]-N-[5-(trifluoromethyl)pyrimidin-2-yl]acetamide]: under 5.00; `O=C(CN1CC2(CC2(F)F)c2c(ccc(Br)c2F)C1=O)Nc1ncc(C(F)(F)F)cn1` (single isomer, unassigned) [Example 324, 2-[6-bromo-1′,1′,5-trifluoro-1-oxospiro[3H-isoquinoline-4,2′-cyclopropane]-2-yl]-N-[5-(trifluoromethyl)pyrimidin-2-yl]acetamide]: 7.57. For the compound `CC1(O)CC(NC(=O)CN2CC3(CC3(F)F)c3c(ccc(Br)c3F)C2=O)C1` (single isomer, unassigned) [Example 325, N-(3-cis-hydroxy-3-methylcyclobutyl)-2-[6-bromo-1′,1′,5-trifluoro-1-oxospiro[3H-isoquinoline-4,2′-cyclopropane]-2-yl]acetamide], the pIC50 under setting [2] was under 6.00.

Consider `CC1(O)CC(NC(=O)CN2CC3(CC3(F)F)c3c(ccc(Br)c3F)C2=O)C1` (single isomer, unassigned) [Example 326, N-(3-cis-hydroxy-3-methylcyclobutyl)-2-[6-bromo-1′,1′,5-trifluoro-1-oxospiro[3H-isoquinoline-4,2′-cyclopropane]-2-yl]acetamide], for which the pIC50 under setting [2] was 7.89. Still for that read-out and setting: next, `CC1(O)CC(NC(=O)CN2C[C@@]3(C[C@@H]3F)c3cc(C(F)(F)F)ccc3C2=O)C1` (single isomer, unassigned) [Example 327, N-(3-cis-hydroxy-3-methylcyclobutyl)-2-[(2′s,4r)-2′-fluoro-1-oxo-6-(trifluoromethyl)spiro[3H-isoquinoline-4,1′-cyclopropane]-2-yl]acetamide]: under 6.00. Still for that read-out and setting: then `CC1(O)CC(NC(=O)CN2C[C@@]3(C[C@@H]3F)c3cc(C(F)(F)F)ccc3C2=O)C1` (single isomer, unassigned) [Example 328, N-(3-cis-hydroxy-3-methylcyclobutyl)-2-[(2′s,4r)-2′-fluoro-1-oxo-6-(trifluoromethyl)spiro[3H-isoquinoline-4,1′-cyclopropane]-2-yl]acetamide], with 7.17. As for `O=C(CN1CC2(CC2)c2cc(Br)ccc2C1=O)N[C@@H]1C[C@H]2CC[C@@H]1O2` (stereo in doubt) [Example 17, 2-(6-bromo-1-oxospiro[3H-isoquinoline-4,1′-cyclopropane]-2-yl)-N-[(1S,2R,4R)-7-oxabicyclo[2.2.1]heptan-2-yl]acetamide], the pIC50 runs as follows: under setting [1], over 5.00; under setting [4], 5.38. In the case of `CCC1CN(CC(=O)Nc2ncncc2F)C(=O)c2ccc(Br)cc21` (stereo not drawn) [Example 1, 2-(6-bromo-4-ethyl-1-oxo-3,4-dihydroisoquinolin-2(1H)-yl)-N-(5-fluoropyrimidin-4-yl)acetamide], the pIC50 runs as follows: under setting [1], over 5.00; under setting [4], 5.86. Consider `N#Cc1cnc(NC(=O)CN2CC3(CC3)c3cc(Br)ccc3C2=O)nc1` [Example 3], for which the pIC50 was over 5.00 under setting [1] and 7.33 under setting [4]. For `O=C(CN1CC2(CC2)c2cc(Br)ccc2C1=O)Nc1ncc(Cl)cn1` [Example 4] the same measures were over 5.00 and 7.41. For `O=C(CN1CC2(CC2)c2cc(Br)ccc2C1=O)Nc1ncccn1` [Example 5] the same measures were over 5.00 and 6.67. For `O=C(CN1CC2(CC2)c2cc(Br)ccc2C1=O)Nc1ncncc1F` [Example 6] the same measures were over 5.00 and 6.85. For the compound `N#Cc1cnc(NC(=O)CN2CC3(CC3)c3cc(Br)ccc3C2=O)c(F)c1` [Example 7], the pIC50 is over 5.00 under setting [1] and 6.46 under setting [4]. Taken in the same sequence, the figures for `O=C(CN1CC2(CC2)c2cc(Br)ccc2C1=O)Nc1ncc(Cl)cc1F` [Example 8] were over 5.00 and 6.67.

As for `O=C(CN1CC2(CC2)c2cc(Br)ccc2C1=O)Nc1ncc(C(F)(F)F)cc1F` [Example 9], the pIC50 under setting [1] is over 5.00 and the pIC50 under setting [4] is 6.40.

For `O=C(CN1CC2(CC2)c2cc(Br)ccc2C1=O)Nc1ccc(Cl)nn1` [Example 10], the pIC50 is over 5.00 under setting [1] and 5.89 under setting [4]. Taken in the same sequence, the figures for `O=C(CN1CC2(CC2)c2cc(Br)ccc2C1=O)Nc1ccncc1F` [Example 11] were over 5.00 and 6.27.
